Data reported in ChEMBL document CHEMBL5108046, “Discovery of Novel Pyrazole-Based KDM5B Inhibitor TK-129 and Its Protective Effects on Myocardial Remodeling and Fibrosis” (J Med Chem, 2022).
The source made the active and inactive calls. The rule behind the calls is not given here.

Assays:
[1] = system: Fibroblast of cardiac tissue; assay: Antimigratory activity in neonatal rat cardiac fibroblasts assessed as fold decrease in Ang II-induced migration measured after 48 hrs by scratch test; format: functional
[2] = Tmax in Sprague-Dawley rat at 10 mg/kg, po measured upto 24 hrs; format: ADME, organism-based; details: in vivo
[3] = Acute toxicity in C57BL/6 mouse assessed as effect on liver at 2 g/Kg by hematoxylin and eosin staining based histopathological analysis; format: tissue-based; details: in vivo, 2000 mg/kg
[4] = molecular target: T1, Lysine-specific demethylase 5B (Homo sapiens, UniProt Q9UGL1); assay: Inhibition of KDM5B (unknown origin) incubated for 30 mins by HRTF assay
T1 sequence (Q9UGL1 whole entry): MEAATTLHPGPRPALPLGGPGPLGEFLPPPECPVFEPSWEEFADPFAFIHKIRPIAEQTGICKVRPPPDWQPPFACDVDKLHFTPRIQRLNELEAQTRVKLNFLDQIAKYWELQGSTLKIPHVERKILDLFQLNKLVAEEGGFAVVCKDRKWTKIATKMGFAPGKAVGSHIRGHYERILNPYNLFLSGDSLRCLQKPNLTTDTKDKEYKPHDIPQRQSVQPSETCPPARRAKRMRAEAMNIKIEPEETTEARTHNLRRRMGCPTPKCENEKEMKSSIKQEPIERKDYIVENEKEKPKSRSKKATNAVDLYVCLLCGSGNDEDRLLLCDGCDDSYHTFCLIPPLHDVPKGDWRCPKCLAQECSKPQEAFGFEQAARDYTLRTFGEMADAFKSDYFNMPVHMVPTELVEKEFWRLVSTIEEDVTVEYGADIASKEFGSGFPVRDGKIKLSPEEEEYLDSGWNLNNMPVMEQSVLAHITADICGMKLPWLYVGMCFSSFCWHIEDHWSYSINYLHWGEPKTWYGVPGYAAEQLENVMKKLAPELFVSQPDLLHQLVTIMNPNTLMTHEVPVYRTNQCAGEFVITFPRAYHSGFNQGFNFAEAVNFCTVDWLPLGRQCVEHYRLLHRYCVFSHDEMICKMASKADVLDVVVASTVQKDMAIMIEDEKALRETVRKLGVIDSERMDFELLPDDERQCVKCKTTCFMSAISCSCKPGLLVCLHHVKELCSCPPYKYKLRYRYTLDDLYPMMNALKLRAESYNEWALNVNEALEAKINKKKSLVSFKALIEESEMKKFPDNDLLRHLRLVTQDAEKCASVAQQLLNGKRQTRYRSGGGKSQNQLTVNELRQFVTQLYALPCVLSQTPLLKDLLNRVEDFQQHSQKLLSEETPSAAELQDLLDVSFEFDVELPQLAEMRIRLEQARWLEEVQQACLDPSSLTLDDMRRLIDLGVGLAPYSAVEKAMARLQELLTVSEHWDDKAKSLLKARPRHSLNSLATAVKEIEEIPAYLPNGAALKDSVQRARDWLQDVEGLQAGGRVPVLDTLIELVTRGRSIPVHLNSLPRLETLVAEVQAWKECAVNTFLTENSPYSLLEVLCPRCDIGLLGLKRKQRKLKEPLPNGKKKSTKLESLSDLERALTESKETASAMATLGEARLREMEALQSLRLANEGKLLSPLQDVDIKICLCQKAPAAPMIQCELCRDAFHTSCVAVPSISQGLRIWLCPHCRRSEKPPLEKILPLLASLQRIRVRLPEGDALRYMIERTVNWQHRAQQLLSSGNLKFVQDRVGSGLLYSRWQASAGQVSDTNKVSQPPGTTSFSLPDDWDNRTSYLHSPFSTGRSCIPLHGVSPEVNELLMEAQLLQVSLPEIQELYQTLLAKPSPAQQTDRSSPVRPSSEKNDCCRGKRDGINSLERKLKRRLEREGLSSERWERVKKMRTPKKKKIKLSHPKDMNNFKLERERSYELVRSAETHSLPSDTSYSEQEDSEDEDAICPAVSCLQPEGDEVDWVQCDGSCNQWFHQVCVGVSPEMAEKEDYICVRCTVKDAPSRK

[5] = Volume of distribution at steady state in Sprague-Dawley rat at 10 mg/kg, po measured upto 24 hrs; format: ADME, organism-based; details: in vivo
[6] = molecular target: Lysine-specific demethylase 5C (Homo sapiens, UniProt P41229); assay: Inhibition of KDM5C (unknown origin) incubated for 30 mins by HRTF assay
Lysine-specific demethylase 5C, sequence (P41229 whole entry): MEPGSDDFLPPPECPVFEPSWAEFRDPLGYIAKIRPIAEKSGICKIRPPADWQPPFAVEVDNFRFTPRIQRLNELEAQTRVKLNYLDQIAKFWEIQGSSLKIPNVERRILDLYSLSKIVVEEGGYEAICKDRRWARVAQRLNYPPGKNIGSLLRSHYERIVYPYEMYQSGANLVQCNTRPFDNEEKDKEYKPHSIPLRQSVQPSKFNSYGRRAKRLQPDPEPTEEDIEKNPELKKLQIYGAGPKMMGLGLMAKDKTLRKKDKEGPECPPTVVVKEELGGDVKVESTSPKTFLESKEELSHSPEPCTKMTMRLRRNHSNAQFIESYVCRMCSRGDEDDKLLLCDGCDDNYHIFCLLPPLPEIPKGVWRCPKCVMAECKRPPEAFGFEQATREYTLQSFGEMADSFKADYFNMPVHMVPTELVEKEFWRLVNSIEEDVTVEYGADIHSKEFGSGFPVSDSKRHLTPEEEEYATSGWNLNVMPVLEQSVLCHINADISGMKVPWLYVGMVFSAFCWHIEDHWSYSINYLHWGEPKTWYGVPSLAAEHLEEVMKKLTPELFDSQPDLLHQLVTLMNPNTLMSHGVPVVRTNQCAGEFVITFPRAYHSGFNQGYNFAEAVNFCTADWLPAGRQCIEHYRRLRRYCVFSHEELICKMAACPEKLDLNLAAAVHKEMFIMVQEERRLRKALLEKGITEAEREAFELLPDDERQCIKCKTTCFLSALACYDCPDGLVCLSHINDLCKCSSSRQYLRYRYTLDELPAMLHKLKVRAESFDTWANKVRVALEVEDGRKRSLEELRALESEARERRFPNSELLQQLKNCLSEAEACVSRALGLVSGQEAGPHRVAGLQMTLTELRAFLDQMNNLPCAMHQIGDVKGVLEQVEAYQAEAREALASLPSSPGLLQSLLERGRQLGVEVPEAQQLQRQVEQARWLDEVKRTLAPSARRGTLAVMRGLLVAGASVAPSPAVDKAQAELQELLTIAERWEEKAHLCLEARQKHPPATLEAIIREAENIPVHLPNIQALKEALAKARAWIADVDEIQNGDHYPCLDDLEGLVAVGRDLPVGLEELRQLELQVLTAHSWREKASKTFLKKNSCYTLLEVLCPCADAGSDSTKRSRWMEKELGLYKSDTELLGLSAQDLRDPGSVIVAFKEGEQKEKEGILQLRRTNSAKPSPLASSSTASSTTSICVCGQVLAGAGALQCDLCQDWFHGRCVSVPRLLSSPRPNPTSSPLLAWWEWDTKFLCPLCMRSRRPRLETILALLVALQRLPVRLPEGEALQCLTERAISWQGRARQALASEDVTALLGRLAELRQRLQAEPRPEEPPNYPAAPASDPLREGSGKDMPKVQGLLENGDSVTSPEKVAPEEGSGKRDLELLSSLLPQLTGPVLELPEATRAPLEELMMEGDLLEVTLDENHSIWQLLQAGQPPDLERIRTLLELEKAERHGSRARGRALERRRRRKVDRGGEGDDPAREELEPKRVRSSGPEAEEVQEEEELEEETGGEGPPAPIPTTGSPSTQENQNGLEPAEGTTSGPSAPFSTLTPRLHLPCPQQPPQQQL

[7] = system: Fibroblast of cardiac tissue; assay: Reversal of Ang II-induced increase in alpha-SMA level in neonatal rat cardiac fibroblasts by Western blot analysis; format: functional, cell-based
Mus musculus [8] = assay: Anti-myocardial remodeling function in isoproterenol-induced C57BL/6 mouse model assessed as decrease in heart weight to body weight ratio at 20 mg/kg by one-time gavage for 21 days; format: functional; details: time 21 day
Mus musculus [9] = assay: Anti-myocardial remodeling function in isoproterenol-induced C57BL/6 mouse model assessed as increase in shortening fraction at 50 mg/kg by one-time gavage for 21 days; format: functional; details: time 21 day
[10] = Half life in Sprague-Dawley rat at 2 mg/kg, iv measured upto 24 hrs; format: ADME, organism-based; details: in vivo
Mus musculus [11] = assay: Anti-myocardial remodeling function in isoproterenol-induced C57BL/6 mouse model assessed as decrease in heart weight to body weight ratio at 50 mg/kg by one-time gavage for 21 days; format: functional; details: time 21 day
[12] = system: Fibroblast of cardiac tissue; assay: Reversal of Ang II-induced increase in […] level in neonatal rat cardiac fibroblasts by Western blot analysis; format: functional, cell-based
[13] = Acute toxicity in C57BL/6 mouse assessed as effect on heart at 2 g/Kg by hematoxylin and eosin staining based histopathological analysis; format: tissue-based; details: in vivo, 2000 mg/kg
Mus musculus [14] = assay: Anti-myocardial remodeling function in isoproterenol-induced C57BL/6 mouse model assessed as increase in ejection fraction at 20 mg/kg by one-time gavage for 21 days; format: functional; details: time 21 day
Mus musculus [15] = assay: Anti-myocardial remodeling function in isoproterenol-induced C57BL/6 mouse model assessed as decrease in cardiac hypertrophy ANP protein at 50 mg/kg by one-time gavage for 21 days relative to control; format: functional; design: scale not given: the % may be the effect or the level left; details: time 21 day
[16] = AUC in Sprague-Dawley rat at 10 mg/kg, po measured upto 24 hrs; format: ADME, organism-based; design: dose 10 mg/kg, time < 24 hrs, route po; details: in vivo
[17] = Clearance in Sprague-Dawley rat at 10 mg/kg, po measured upto 24 hrs; format: ADME, organism-based; details: in vivo
[18] = molecular target: Lysine-specific demethylase 5A (Homo sapiens, UniProt P29375); assay: Inhibition of KDM5A (unknown origin) incubated for 30 mins by HRTF assay
Lysine-specific demethylase 5A, sequence (P29375 whole entry): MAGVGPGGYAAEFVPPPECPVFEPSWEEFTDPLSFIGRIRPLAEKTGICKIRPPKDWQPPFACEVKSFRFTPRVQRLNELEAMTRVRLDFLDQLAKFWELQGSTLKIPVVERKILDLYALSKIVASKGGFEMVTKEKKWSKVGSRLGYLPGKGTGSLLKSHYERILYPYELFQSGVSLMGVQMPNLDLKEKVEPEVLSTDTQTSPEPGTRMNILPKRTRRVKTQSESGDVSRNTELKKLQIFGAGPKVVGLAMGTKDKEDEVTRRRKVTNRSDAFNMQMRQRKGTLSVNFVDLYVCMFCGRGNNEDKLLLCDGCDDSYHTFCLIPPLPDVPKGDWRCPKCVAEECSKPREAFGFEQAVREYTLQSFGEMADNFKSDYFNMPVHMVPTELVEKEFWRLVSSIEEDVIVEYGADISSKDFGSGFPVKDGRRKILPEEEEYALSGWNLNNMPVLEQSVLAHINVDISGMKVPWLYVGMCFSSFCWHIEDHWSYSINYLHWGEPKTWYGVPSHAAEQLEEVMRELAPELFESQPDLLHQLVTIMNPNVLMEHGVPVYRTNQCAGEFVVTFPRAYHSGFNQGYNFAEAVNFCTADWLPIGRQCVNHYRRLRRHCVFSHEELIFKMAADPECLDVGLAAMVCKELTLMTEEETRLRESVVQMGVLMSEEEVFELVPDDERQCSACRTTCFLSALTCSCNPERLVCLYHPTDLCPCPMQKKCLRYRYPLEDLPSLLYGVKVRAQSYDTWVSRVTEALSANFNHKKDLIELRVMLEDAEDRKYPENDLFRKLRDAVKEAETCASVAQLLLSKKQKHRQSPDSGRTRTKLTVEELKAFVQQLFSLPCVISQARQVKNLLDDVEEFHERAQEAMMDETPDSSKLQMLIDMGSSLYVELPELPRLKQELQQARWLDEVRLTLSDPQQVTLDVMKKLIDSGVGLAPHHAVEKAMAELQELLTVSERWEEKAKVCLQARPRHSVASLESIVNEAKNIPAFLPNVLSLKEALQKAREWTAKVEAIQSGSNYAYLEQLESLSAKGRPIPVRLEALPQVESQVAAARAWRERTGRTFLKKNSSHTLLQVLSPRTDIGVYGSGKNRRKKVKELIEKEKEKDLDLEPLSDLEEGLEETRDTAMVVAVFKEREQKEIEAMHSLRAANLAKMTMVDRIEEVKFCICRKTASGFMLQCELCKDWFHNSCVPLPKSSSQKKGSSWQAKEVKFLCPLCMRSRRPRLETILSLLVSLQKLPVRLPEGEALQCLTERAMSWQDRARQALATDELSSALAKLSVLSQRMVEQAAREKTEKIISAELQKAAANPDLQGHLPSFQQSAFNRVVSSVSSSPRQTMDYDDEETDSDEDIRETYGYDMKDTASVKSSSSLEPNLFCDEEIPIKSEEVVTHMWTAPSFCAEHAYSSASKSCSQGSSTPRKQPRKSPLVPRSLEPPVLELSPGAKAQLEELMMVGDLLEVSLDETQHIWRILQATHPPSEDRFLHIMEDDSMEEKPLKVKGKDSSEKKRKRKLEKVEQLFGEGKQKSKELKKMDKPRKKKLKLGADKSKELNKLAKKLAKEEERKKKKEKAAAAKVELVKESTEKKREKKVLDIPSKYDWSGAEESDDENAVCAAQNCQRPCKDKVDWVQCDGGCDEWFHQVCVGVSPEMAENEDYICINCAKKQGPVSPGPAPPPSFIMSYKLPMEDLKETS

Mus musculus [19] = assay: Anti-myocardial remodeling function in isoproterenol-induced C57BL/6 mouse model assessed as increase in shortening fraction at 20 mg/kg by one-time gavage for 21 days; format: functional; details: time 21 day
[20] = Volume of distribution at steady state in Sprague-Dawley rat at 2 mg/kg, iv measured upto 24 hrs; format: ADME, organism-based; details: in vivo, read-out: Vdss
Mus musculus [21] = assay: Anti-myocardial remodeling function in isoproterenol-induced C57BL/6 mouse model assessed as decrease in cardiac hypertrophy BNP protein at 50 mg/kg by one-time gavage for 21 days relative to control; format: functional; design: scale not given: the % may be the effect or the level left; details: time 21 day
[22] = system: Fibroblast of cardiac tissue; assay: Reversal of Ang II-induced decrease in H3K4me3 level in neonatal rat cardiac fibroblasts by immunofluorescence staining assay; format: functional, cell-based
[23] = system: Fibroblast of cardiac tissue; assay: Reversal of Ang II-induced increase in collagen I level in neonatal rat cardiac fibroblasts by Western blot analysis; format: functional, cell-based
Mus musculus [24] = assay: Anti-myocardial remodeling function in isoproterenol-induced C57BL/6 mouse model assessed as decrease in heart weight to […] ratio at 50 mg/kg by one-time gavage for 21 days; format: functional; details: time 21 day
[25] = Cytotoxicity against neonatal rat Cardiomyocytes assessed as cell survival rate at 10 uM measured after 48 hrs by MTT assay; format: toxicity, cell-based, Cardiac muscle cell; details: read-out: Activity
[26] = Acute toxicity in C57BL/6 mouse assessed as effect on lung at 2 g/Kg by hematoxylin and eosin staining based histopathological analysis; format: tissue-based; details: in vivo, 2000 mg/kg
Mus musculus [27] = assay: Anti-myocardial remodeling function in isoproterenol-induced C57BL/6 mouse model assessed as increase in ejection fraction at 50 mg/kg by one-time gavage for 21 days; format: functional; details: time 21 day
[28] = Acute toxicity in C57BL/6 mouse assessed as survival at 2 g/Kg by one-time gavage measured after 2 weeks; details: in vivo, po, 2000 mg/kg, 336 h
[29] = Cytotoxicity against neonatal rat cardiac fibroblast assessed as cell survival rate at 10 uM measured after 48 hrs by MTT assay relative to control; format: toxicity, cell-based, Fibroblast of cardiac tissue; details: neonatal rat cardiac fibroblasts, read-out: Activity
[30] = Oral bioavailability in Sprague-Dawley rat at 10 mg/kg measured upto 24 hrs; format: ADME, organism-based; details: in vivo
[31] = Half life in Sprague-Dawley rat at 10 mg/kg, po measured upto 24 hrs; format: ADME, organism-based; details: in vivo
[32] = Clearance in Sprague-Dawley rat at 2 mg/kg, iv measured upto 24 hrs; format: ADME, organism-based; details: in vivo
[33] = AUC in Sprague-Dawley rat at 2 mg/kg, iv measured upto 24 hrs; format: ADME, organism-based; design: dose 2 mg/kg, time < 24 hrs, route iv; details: in vivo
[34] = system: Fibroblast of cardiac tissue; assay: Reversal of Ang II-induced decrease in H3K4me3 level in neonatal rat cardiac fibroblasts by Western blot analysis; format: functional, cell-based
Mus musculus [35] = assay: Anti-myocardial remodeling function in isoproterenol-induced C57BL/6 mouse model assessed as decrease in heart weight to […] ratio at 20 mg/kg by one-time gavage for 21 days; format: functional; details: time 21 day
[36] = system: Fibroblast of cardiac tissue; assay: Reversal of Ang II-induced proliferation in neonatal rat cardiac fibroblasts measured after 48 hrs by MTT assay; format: functional, cell-based
Mus musculus [37] = assay: Anti-myocardial remodeling function in isoproterenol-induced C57BL/6 mouse model assessed as decrease in cardiac hypertrophy ANP protein at 20 mg/kg by one-time gavage for 21 days relative to control; format: functional; design: scale not given: the % may be the effect or the level left; details: time 21 day
[38] = Cmax in Sprague-Dawley rat at 2 mg/kg, iv measured upto 24 hrs; format: ADME, organism-based; design: time < 24 hrs, dose 2 mg/kg, route iv; details: in vivo
[39] = Acute toxicity in C57BL/6 mouse assessed as body weight at 2 g/Kg by one-time gavage measured after 2 weeks; details: in vivo, po, 2000 mg/kg, 336 h
[40] = Cmax in Sprague-Dawley rat at 10 mg/kg, po measured upto 24 hrs; format: ADME, organism-based; design: dose 10 mg/kg, time < 24 hrs, route po; details: in vivo
Mus musculus [41] = assay: Anti-myocardial remodeling function in isoproterenol-induced C57BL/6 mouse model assessed as decrease in cardiac hypertrophy BNP protein at 20 mg/kg by one-time gavage for 21 days relative to control; format: functional; design: scale not given: the % may be the effect or the level left; details: time 21 day
Mus musculus [42] = assay: Anti-myocardial remodeling function in isoproterenol-induced C57BL/6 mouse heart injury model assessed as reversal of pathological damage at 20 to 50 mg/kg by one-time gavage for 21 days by Masson staining and Sirius Red staining based analysis; format: functional, organism-based; details: dose 20-50 mg/kg, time 21.0 day
[43] = system: Fibroblast of cardiac tissue; assay: Antimigratory activity in neonatal rat cardiac fibroblasts assessed as fold decrease in Ang II-induced migration measured after 48 hrs by transwell test (reference value: 1.8 fold); format: functional
[44] = Acute toxicity in C57BL/6 mouse assessed as effect on spleen at 2 g/Kg by hematoxylin and eosin staining based histopathological analysis; format: tissue-based; details: in vivo, 2000 mg/kg
[45] = molecular target: T1, Lysine-specific demethylase 5B; assay: Inhibition of KDM5B (unknown origin) at 10 uM incubated for 30 mins by HRTF assay relative to control
[46] = Acute toxicity in C57BL/6 mouse assessed as effect on kidney at 2 g/Kg by hematoxylin and eosin staining based histopathological analysis; format: tissue-based; details: in vivo, 2000 mg/kg

## CC(C)c1cc(C(=O)N2CC[C@@H](NC(=O)NC3CC3)C2)n[nH]1
[1]
  Ratio: 0.77
[2]
  Tmax: 24 min
[3]
  Activity: Non-Toxic
[4]
  IC50: 44 nM
[5]
  Vdss: 33.4 L/kg
[6]
  IC50: 353 nM
[7]
  Activity: Active
Mus musculus [8]
  Ratio: 0.93
Mus musculus [9]
  Activity: 50%
[10]
  half-life: 24 min
Mus musculus [11]
  Ratio: 0.89
[12]
  Activity: Active
[13]
  Activity: Non-Toxic
Mus musculus [14]
  Activity: 77%
Mus musculus [15]
  Activity: 71%
[16]
  AUC at 24 h: 1040 ng·h/mL
[17]
  CL/F: 165 mL/min/kg
[18]
  IC50: 79 nM
Mus musculus [19]
  Activity: 44%
[20]
  Vd: 2.7 L/kg
Mus musculus [21]
  Activity: 54%
[22]
  Activity: Active
[23]
  Activity: Active
Mus musculus [24]
  Ratio: 0.89
[25]
  viability at 48 h, 10 µM: 90%
[26]
  Activity: Non-Toxic
Mus musculus [27]
  Activity: 83%
[28]
  Activity: Non-Toxic
[29]
  viability at 48 h, 10 µM: 90%
[30]
  bioavailability: 42.4%
[31]
  half-life: 144 min
[32]
  clearance: 70 mL/min/kg
[33]
  AUC at 24 h: 480 ng·h/mL
[34]
  Activity: Active
Mus musculus [35]
  Ratio: 0.93
[36]
  Activity: Active
Mus musculus [37]
  Activity: 85%
[38]
  Cmax: 1230 ng/mL
[39]
  Activity: Non-Toxic
[40]
  Cmax: 710 ng/mL
Mus musculus [41]
  Activity: 75%
Mus musculus [42]
  Activity: Active
[43]
  Ratio: 0.6
[44]
  Activity: Non-Toxic
[45]
  inhibition: 100%
[46]
  Activity: Non-Toxic
